This note sets out measurements from US10251892B2, “Bicyclic heterocycles as FGFR4 inhibitors” (Incyte Corporation, priority 2015, dated 2019).

Sequence of FGFR3 enzyme (P22607 23-806): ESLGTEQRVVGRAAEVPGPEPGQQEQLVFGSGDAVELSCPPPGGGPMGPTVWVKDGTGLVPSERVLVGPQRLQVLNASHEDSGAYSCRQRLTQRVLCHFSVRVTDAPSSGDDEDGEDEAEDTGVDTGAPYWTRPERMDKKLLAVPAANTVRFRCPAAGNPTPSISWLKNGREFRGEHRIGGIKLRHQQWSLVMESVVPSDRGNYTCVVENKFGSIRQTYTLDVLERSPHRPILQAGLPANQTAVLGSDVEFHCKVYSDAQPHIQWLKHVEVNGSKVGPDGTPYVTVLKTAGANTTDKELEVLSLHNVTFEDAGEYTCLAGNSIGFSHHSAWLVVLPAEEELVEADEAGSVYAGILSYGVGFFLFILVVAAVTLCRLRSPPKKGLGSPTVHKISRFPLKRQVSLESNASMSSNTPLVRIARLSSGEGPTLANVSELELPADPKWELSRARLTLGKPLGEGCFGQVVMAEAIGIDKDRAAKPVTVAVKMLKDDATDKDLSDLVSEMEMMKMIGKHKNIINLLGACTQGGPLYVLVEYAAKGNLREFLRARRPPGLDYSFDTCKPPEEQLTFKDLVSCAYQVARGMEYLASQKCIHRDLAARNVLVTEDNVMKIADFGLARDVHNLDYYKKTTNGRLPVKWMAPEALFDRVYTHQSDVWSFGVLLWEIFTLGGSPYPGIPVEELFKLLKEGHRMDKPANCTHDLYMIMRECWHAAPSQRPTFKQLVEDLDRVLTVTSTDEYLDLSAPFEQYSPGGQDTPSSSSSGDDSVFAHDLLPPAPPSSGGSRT

The assay deals with FGFR3 enzyme (Homo sapiens (Human), UniProt P22607). The assay is described as follows: FGFR Enzymatic Assay (peptide phosphorylation, FRET), FGFR3. The assay is classed as biochemical. Particulars: IC50 ratio showing FGFR3 selectivity; pre-incubated for 4 hours. The procedure:
The inhibitor potency of the exemplified compounds was measured in an enzyme assay that measures peptide phosphorylation using FRET measurements to detect product formation. Inhibitors were serially diluted in DMSO and a volume of 0.5 μL was transferred to the wells of a 384-well plate.
GraphPad prism3 was used to analyze the data.
Consider `COc1cc(OC)c(F)c(N2Cc3cnc(-c4cnn(C5CCN(S(C)(=O)=O)C5)c4)cc3C3(CC3)C2=O)c1F` (stereo not shown) [Example 147, 2′-(2,6-difluoro-3,5-dimethoxyphenyl)-6′-(1-(1-(methylsulfonyl)pyrrolidin-3-yl)-1H-pyrazol-4-yl)-1′H-spiro[cyclopropane-1,4′-[2,7]naphthyridin]-3′(2′H)-one], for which the FGFR1/FGFR3 is listed as above 10 and the FGFR4/FGFR3 is recorded as above 3.
On to `COc1cc(OC)c(F)c(N2Cc3cnc(-c4cn(C)nc4C)cc3N(c3ccc(C#N)cc3)C2=O)c1F` [Example 44, 4-(3-(2,6-difluoro-3,5-dimethoxyphenyl)-7-(1,3-dimethyl-1H-pyrazol-4-yl)-2-oxo-3,4-dihydropyrido[4,3-d]pyrimidin-1(2H)-yl)benzonitrile], for which the FGFR1/FGFR3 is above 10 and the FGFR4/FGFR3 is reported as above 10.
Take `CCc1cc(CN2C(=O)N(c3c(F)c(OC)cc(OC)c3F)Cc3cnc(-c4cn(C)nc4C)cc32)no1` [Example 64, 3-(2,6-difluoro-3,5-dimethoxyphenyl)-7-(1,3-dimethyl-1H-pyrazol-4-yl)-1-((5-ethylisoxazol-3-yl)methyl)-3,4-dihydropyrido[4,3-d]pyrimidin-2(1H)-one]: the FGFR1/FGFR3 is above 10 and the FGFR4/FGFR3 is above 10.
Consider `COc1cc(OC)c(F)c(N2Cc3cnc(-c4cn(C)nc4C)cc3N(C[C@H]3CCOC3)C2=O)c1F` [Example 108, (R)-3-(2,6-difluoro-3,5-dimethoxyphenyl)-7-(1,3-dimethyl-1H-pyrazol-4-yl)-1-((tetrahydrofuran-3-yl)methyl)-3,4-dihydropyrido[4,3-d]pyrimidin-2(1H)-one], for which the FGFR1/FGFR3 is above 3 and the FGFR4/FGFR3 is reported as above 3.
For `COc1cc(OC)c(F)c(N2Cc3cnc(-c4cnn(C5CCN(C(C)=O)C5)c4)cc3C3(CC3)C2=O)c1F` (stereo not shown) [Example 150, 6′-(1-(1-acetylpyrrolidin-3-yl)-1H-pyrazol-4-yl)-2′-(2,6-difluoro-3,5-dimethoxyphenyl)-1′H-spiro[cyclopropane-1,4′-[2,7]naphthyridin]-3′(2′H)-one], the FGFR1/FGFR3 is above 5 and the FGFR4/FGFR3 was above 5.
For `COc1cc(OC)c(F)c(N2Cc3cnc(-c4cn(C)nc4C)cc3N(Cc3ccnc(C)c3)C2=O)c1F` [Example 68, 3-(2,6-difluoro-3,5-dimethoxyphenyl)-7-(1,3-dimethyl-1H-pyrazol-4-yl)-1-((2-methylpyridin-4-yl)methyl)-3,4-dihydropyrido[4,3-d]pyrimidin-2(1H)-one], the FGFR1/FGFR3 is above 5 and the FGFR4/FGFR3 is given as above 5.
For the compound `COc1cc(OC)c(F)c(N2Cc3cnc(-c4cn(Cc5cccnc5)nc4C)cc3C3(CC3)C2=O)c1F` [Example 155, 2′-(2,6-difluoro-3,5-dimethoxyphenyl)-6′-(3-methyl-1-(pyridin-3-ylmethyl)-1H-pyrazol-4-yl)-1′H-spiro[cyclopropane-1,4′-[2,7]naphthyridin]-3′(2′H)-one], the FGFR1/FGFR3 was above 5 and the FGFR4/FGFR3 was above 1.
Regarding `COc1cc(OC)c(F)c(N2Cc3cnc(-c4ccc(C5(C#N)CCC5)nc4)cc3N(Cc3nnc(C)o3)C2=O)c1F` [Example 187, 1-(5-{3-(2,6-difluoro-3,5-dimethoxyphenyl)-1-[(5-methyl-1,3,4-oxadiazol-2-yl)methyl]-2-oxo-1,2,3,4-tetrahydropyrido[4,3-d]pyrimidin-7-yl}pyridin-2-yl)cyclobutanecarbonitrile], the FGFR1/FGFR3 was above 10 and the FGFR4/FGFR3 is recorded as above 10.
Regarding `COc1cc(OC)c(F)c(N2Cc3cnc(-c4ccncc4)cc3C3(CC3)C2=O)c1F` [Example 185, 2′-(2,6-difluoro-3,5-dimethoxyphenyl)-6′-(pyridin-4-yl)-1′H-spiro[cyclopropane-1,4′-[2,7]naphthyridin]-3′(2′H)-one], the FGFR1/FGFR3 is listed as above 3 and the FGFR4/FGFR3 is on record as above 3.
Take `CCn1cc(N2C(=O)N(c3c(F)c(OC)cc(OC)c3F)Cc3cnc(-c4cn(C)nc4C)cc32)cn1` [Example 131, 3-(2,6-difluoro-3,5-dimethoxyphenyl)-7-(1,3-dimethyl-1H-pyrazol-4-yl)-1-(1-ethyl-1H-pyrazol-4-yl)-3,4-dihydropyrido[4,3-d]pyrimidin-2(1H)-one]: the FGFR1/FGFR3 is reported as above 3 and the FGFR4/FGFR3 is above 10.
For `COc1cc(OC)c(F)c(N2Cc3cnc(-c4cn(C)nc4C)cc3N(c3ccc4ncsc4c3)C2=O)c1F` [Example 41, 1-(1,3-benzothiazol-6-yl)-3-(2,6-difluoro-3,5-dimethoxyphenyl)-7-(1,3-dimethyl-1H-pyrazol-4-yl)-3,4-dihydropyrido[4,3-d]pyrimidin-2(1H)-one], the FGFR1/FGFR3 is above 1 and the FGFR4/FGFR3 is above 5.
Turning to `CCCNC(=O)c1ccc(-c2cc3c(cn2)CN(c2c(F)c(OC)cc(OC)c2F)C(=O)N3CC)cn1` [Example 179, 5-(3-(2,6-difluoro-3,5-dimethoxyphenyl)-1-ethyl-2-oxo-1,2,3,4-tetrahydropyrido[4,3-d]pyrimidin-7-yl)-N-propylpicolinamide], the FGFR1/FGFR3 is above 5 and the FGFR4/FGFR3 is on record as above 10.
With `COc1cc(OC)c(F)c(N2Cc3cnc(-c4cnn(CC5CN(C(C)=O)C5)c4)cc3C3(CC3)C2=O)c1F` [Example 167, 6′-(1-((1-acetylazetidin-3-yl)methyl)-1H-pyrazol-4-yl)-2′-(2,6-difluoro-3,5-dimethoxyphenyl)-1′H-spiro[cyclopropane-1,4′-[2,7]naphthyridin]-3′(2′H)-one], the FGFR1/FGFR3 was above 3 and the FGFR4/FGFR3 is on record as above 3.
On to `COc1cc(OC)c(F)c(N2Cc3cnc(-c4cn(C)nc4C)cc3N(c3ccc4[nH]ncc4c3)C2=O)c1F` [Example 134, 3-(2,6-difluoro-3,5-dimethoxyphenyl)-7-(1,3-dimethyl-1H-pyrazol-4-yl)-1-(1H-indazol-5-yl)-3,4-dihydropyrido[4,3-d]pyrimidin-2(1H)-one], for which the FGFR1/FGFR3 was above 3 and the FGFR4/FGFR3 was above 5.
As to `COc1cc(OC)c(F)c(N2Cc3cnc(-c4cn(C)nc4C)cc3N(c3cc(F)cc(C#N)c3)C2=O)c1F` [Example 78, 3-(3-(2,6-difluoro-3,5-dimethoxyphenyl)-7-(1,3-dimethyl-1H-pyrazol-4-yl)-2-oxo-3,4-dihydropyrido[4,3-d]pyrimidin-1(2H)-yl)-5-fluorobenzonitrile], the FGFR1/FGFR3 was above 5 and the FGFR4/FGFR3 was above 3.
As to `COc1cc(OC)c(F)c(N2Cc3cnc(-c4cn(C)nc4C)cc3N(c3cnn(C4CC4)c3)C2=O)c1F` [Example 130, 1-(1-cyclopropyl-1H-pyrazol-4-yl)-3-(2,6-difluoro-3,5-dimethoxyphenyl)-7-(1,3-dimethyl-1H-pyrazol-4-yl)-3,4-dihydropyrido[4,3-d]pyrimidin-2(1H)-one], the FGFR1/FGFR3 is reported as above 5 and the FGFR4/FGFR3 is recorded as above 5.
Take `COc1cc(OC)c(F)c(N2Cc3cnc(-c4cn(C)nc4C)cc3N(C3CCN(C(C)=O)CC3)C2=O)c1F` [Example 43, 1-(1-acetylpiperidin-4-yl)-3-(2,6-difluoro-3,5-dimethoxyphenyl)-7-(1,3-dimethyl-1H-pyrazol-4-yl)-3,4-dihydropyrido[4,3-d]pyrimidin-2(1H)-one]: the FGFR1/FGFR3 is above 10 and the FGFR4/FGFR3 is recorded as above 5.
Turning to `COc1cc(OC)c(F)c(N2Cc3cnc(-c4cn(C)nc4C)cc3N(C3CCN(S(C)(=O)=O)CC3)C2=O)c1F` [Example 71, 3-(2,6-difluoro-3,5-dimethoxyphenyl)-7-(1,3-dimethyl-1H-pyrazol-4-yl)-1-(1-(methylsulfonyl)piperidin-4-yl)-3,4-dihydropyrido[4,3-d]pyrimidin-2(1H)-one], the FGFR1/FGFR3 is given as above 5 and the FGFR4/FGFR3 is listed as above 3.
`COc1cc(OC)c(F)c(N2Cc3cnc(-c4cn(C)nc4C)cc3N(c3ccccc3F)C2=O)c1F` [Example 110, 3-(2,6-difluoro-3,5-dimethoxyphenyl)-7-(1,3-dimethyl-1H-pyrazol-4-yl)-1-(2-fluorophenyl)-3,4-dihydropyrido[4,3-d]pyrimidin-2(1H)-one]: the FGFR1/FGFR3 is on record as above 3 and the FGFR4/FGFR3 is above 5.
As for `COc1cc(OC)c(F)c(N2Cc3cnc(-c4cn(C)nc4C)cc3N(Cc3ccc(F)cc3)C2=O)c1F` [Example 34, 3-(2,6-difluoro-3,5-dimethoxyphenyl)-7-(1,3-dimethyl-1H-pyrazol-4-yl)-1-(4-fluorobenzyl)-3,4-dihydropyrido[4,3-d]pyrimidin-2(1H)-one], the FGFR1/FGFR3 is above 5 and the FGFR4/FGFR3 is listed as above 10.
For the compound `COc1cc(OC)c(F)c(N2Cc3cnc(-c4cnn(CCN5CCOCC5)c4)cc3C3(CC3)C2=O)c1F` [Example 157, 2′-(2,6-difluoro-3,5-dimethoxyphenyl)-6′-(1-(2-morpholinoethyl)-1H-pyrazol-4-yl)-1′H-spiro[cyclopropane-1,4′-[2,7]naphthyridin]-3′(2′H)-one], the FGFR1/FGFR3 was above 5 and the FGFR4/FGFR3 is listed as above 3.
`CCn1cc(-c2cc3c(cn2)CN(c2c(F)c(OC)cc(OC)c2F)C(=O)C32CC2)c(C)n1` [Example 158, 2′-(2,6-difluoro-3,5-dimethoxyphenyl)-6′-(1-ethyl-3-methyl-1H-pyrazol-4-yl)-1′H-spiro[cyclopropane-1,4′-[2,7]naphthyridin]-3′(2′H)-one]: the FGFR1/FGFR3 is given as above 5 and the FGFR4/FGFR3 was above 3.
Regarding `COc1cc(OC)c(F)c(N2Cc3cnc(-c4cn(C)nc4C)cc3N(Cc3ccc4c(c3)OCCO4)C2=O)c1F` [Example 38, 3-(2,6-difluoro-3,5-dimethoxyphenyl)-1-((2,3-dihydrobenzo[b][1,4]dioxin-6-yl)methyl)-7-(1,3-dimethyl-1H-pyrazol-4-yl)-3,4-dihydropyrido[4,3-d]pyrimidin-2(1H)-one], the FGFR1/FGFR3 was above 5 and the FGFR4/FGFR3 is above 5.
